Measured values: patent US20240245677A1, “SELECTED COMPOUNDS FOR TARGETED DEGRADATION OF BRD9” (C4 THERAPEUTICS, INC., priority 2021, published 2024)

Tests used:
[1] = Dog Hepatocyte Stability Assay; assay type: in vitro ADME; settings: beagle, cryopreserved hepatocytes
Experimental: (§1) The metabolic stability of Compound 1 was evaluated using cryopreserved hepatocytes from mice, rats, dogs, cynomolgus monkeys, and humans.
(§2) 50 μL of 1 mM intermediate solutions for each test compound was prepared by adding 5 μL of 10 mM stock solution to 45 μL of a 1:1 mixture of water and acetonitrile. A 2 μM working stocks for each test compound were prepared in incubation media, InvitroGRO™ KHB (Bio IVT, Westbury, NY, USA), by adding 2 μL of 1 mM intermediate stock to 998 μL of incubation media.
(§3) To thaw the hepatocytes, InvitroGRO™ HT thawing medium (BioIVT, Westbury, NY, USA) was prewarmed to 37° C., and 48 mL of warmed thawing medium was transferred to a sterile 50 mL conical tube. The hepatocyte vial was removed from the liquid nitrogen Dewar, and gently thawed in a water bath at 37° C. for 1-2 minutes, then the contents of the vial were emptied into a conical tube with prewarmed InvitroGRO HT medium. 1 mL of prewarmed InvitroGRO HT medium was added to each emptied hepatocyte vial to resuspend any remaining cells, and the contents were pipetted into the hepatocyte suspension. The tube containing the hepatocyte suspension was centrifuged at 50*g for 5 minutes. The supernatant was removed carefully, and the remaining pellet was resuspended by adding 1 mL of incubation media, InvitroGRO KHB, and gently shaking until there were no clumps.
(§4) Cell viability was determined using the trypan blue method. 25 μL of hepatocyte cell suspension was added to a trypan blue (TB) solution (containing 775 μL InvitroGRO KHB and 200 μL of Trypan Blue). Cell count was taken using a hemacytometer.
(§5) For mouse hepatocytes, 200 μL of hepatocytes (0.8×10^6 cells/mL) were added to the wells of a 48 well plate (Catalog No. 92048, TPP Techno Plastic Products AG, Trasadingen, Switzerland) and pre-incubated for 30 minutes at 37° C. For rat, dog, monkey, […], 200 μL of hepatocytes (2×10^6 cells/mL) were added to the wells of a 48 well plate (Catalog No. 92048, TPP Techno Plastic Products AG, Trasadingen, Switzerland) and pre-incubated for 30 minutes at 37° C.
(§6) For all species of hepatocytes, once the pre-incubation period was complete, 200 μL of 2 μM working stock of test compound was added to the wells of the plate, and the plate was vortexed on a Vibramax™ 100 (P/N 544-21200-00, Heidolph Instruments GmbH & Co. KG, Schwabach, Germany) at 500 rpm in a 37° C. CO2 incubator (Model No. 51026280, ThermoFisher Scientific, Waltham, MA, USA). At each time point of 0, 15, 30, 60, 90, and 120 minutes, 50 μL of incubation mixture was precipitated with 200 μL of acetonitrile containing internal standard.
(§7) At the end of the experiment, the samples were centrifuged at 4000 rpm for 10 minutes. […]

[2] = tested on: cryopreserved hepatocytes from beagle dogs; experiment: Dog Hepatocyte Stability Assay; assay type: in vitro ADME
Experimental: as §1, §2, §3, §4, §5, §6, §7

[3] = Salt and cocrystal evaluation (equilibration, cooling, slow evaporation, anti-solvent, re-equilibration); assay type: physicochemical
Experimental: Compound 1 was investigated with a variety of salts to find additional morphic forms and cocrystals. This salt and cocrystal investigation for Compound 1 was performed with free form Pattern A*. This is a hydrate with medium crystallinity. […] Acetone, methanol, ethyl acetate and acetonitrile were used as evaluation solvents. Five crystallization methods, including equilibration, fast cooling, slow evaporation, addition of anti-solvent and re-equilibration, were applied to obtain salt or cocrystal hits. From these investigations only one crystalline form—a urea cocrystal Form P was identified.
Based on the pKa of free form, 14 acids were selected for evaluation in acetone and methanol. About 30 mg of Compound 1 free form and 1 or 2 equivalents of salt forming agents 5 were weighed into 2 mL glass vials. 200 μL of acetone or methanol was added. […] To avoid degradation, experiments with strong acids were conducted without heating. Samples were stirred at 25° C. for 2 days. Obtained suspensions were taken out and centrifuged. Then wet cakes were dried at 25° C. under vacuum for 2 h. Obtained solids were analyzed by XRPD and results were summarized.
To obtain crystalline salts, another two solvents including ethyl acetate and acetonitrile were added as solvents. About 30 mg of Compound 1 free form and 1 or 2 equivalents of salt forming agents were weighed into 2 mL glass vials. 400 μL of ethyl acetate or 300 μL of acetonitrile was added. Samples were stirred at 25° C. for 2 days. Obtained solids were analyzed by XRPD and results were summarized.
Nicotinamide and urea were selected as crystallization agents for cocrystal evaluation. Acetone, methanol, ethyl acetate and acetonitrile were used as solvents. About 30 mg of Compound 1 free form, and 1 equivalent of crystallization agent were weighed into 2 mL glass vials. […] of acetone, 200 μL of methanol, […] of ethyl acetate or 300 µL of acetonitrile was added. Obtained suspensions were stirred at 25° C. for 2 days. Obtained solids were analyzed by XRPD and results were summarized.
Supernatants obtained from equilibration experiments were cooled to 5° C. and stirred at 5° C. for 3 days. Then obtained suspensions were centrifuged at 5° C. and solids were dried under vacuum at 25° C. for 2 h. No crystalline salt was obtained.
No crystalline hits were obtained.
Amorphous salts from above experiments were re-equilibrated at 25° C. for crystallization. No crystalline salt hits were obtained.

## COc1cc(-c2cn(C)c(=O)c(C)c2C)cc(OC)c1CN1CC[C@H](N2CCN(c3ccc(N[C@H]4CCC(=O)NC4=O)cc3F)CC2)C(F)(F)C1 [Compound 1, (S)-3-((4-(4-((S)-1-(2,6-dimethoxy-4-(1,4,5-trimethyl-6-oxo-1,6-dihydropyridin-3-yl)benzyl)-3,3-difluoropiperidin-4-yl)piperazin-1-yl)-3-fluorophenyl)amino)-piperidine-2,6-dione]
[1]
  half-life at 1 µM: > 2 h
[1]; read-out: CL int cells
  hepatocyte CLint at 1 µM: 1.49 µL/min/1e6 cells
[2]
  CLh int in vivo: 11.48 mL/min/Kg body wt.
  CLhb scaled well stirred: 8.6 mL/min/kg body wt.
[3]; 1.05 equiv. Sulfuric acid, Acetone, +200 μL EA
  Results (re-equilibration for 8 days) Acetone: Free form Pattern B*
[3]; 2.10 equiv. Hydrochloric acid, Acetone, +100 μL ACN
  Results (re-equilibration for 8 days) Acetone: +100 μL ACN, Gel-like sample
[3]; 2.10 equiv. Methanesulfonic acid, Acetone, +200 μL EA
  Results (re-equilibration for 8 days) Acetone: +200 μL EA, Gel-like sample
[3]; 2.10 equiv. Trifluoroacetic acid, Acetone, +400 μL MTBE
  Results (anti-solvent addition) A Acetone: Clear solution
[3]; 2.10 equiv. Trifluoroacetic acid, EA, +200 μL MTBE, suspension, AF = Amorphous form
  Results (anti-solvent addition) C EA, XRPD: XRPD: AF*
[3]; cooled to 5° C., 3 days, 1.05 equiv. Fumaric acid, Acetone
  Results (cooling) A Acetone: Clear Solution
[3]; cooled to 5° C., 3 days, 1.05 equiv. Sulfuric acid, Acetone
  Results (cooling) A Acetone: Clear Solution
[3]; cooled to 5° C., 3 days, 1.05 equiv. Sulfuric acid
  Results (cooling) B MeOH: Clear Solution
[3]; cooled to 5° C., 3 days, 2.10 equiv. Citric acid
  Results (cooling) B MeOH: Clear Solution
[3]; cooled to 5° C., 3 days, 2.10 equiv. Fumaric acid, Acetone
  Results (cooling) A Acetone: Clear Solution
[3]; cooled to 5° C., 3 days, 2.10 equiv. Hydrochloric acid, Acetone
  Results (cooling) A Acetone: Clear Solution
[3]; cooled to 5° C., 3 days, 2.10 equiv. Hydrochloric acid
  Results (cooling) B MeOH: Clear Solution
[3]; cooled to 5° C., 3 days, 2.10 equiv. L-Malic acid, Acetone
  Results (cooling) A Acetone: Clear Solution
[3]; cooled to 5° C., 3 days, 2.10 equiv. Maleic acid
  Results (cooling) B MeOH: Clear Solution
[3]; cooled to 5° C., 3 days, 2.10 equiv. Methanesulfonic acid
  Results (cooling) B MeOH: Clear Solution
[3]; cooled to 5° C., 3 days, 2.10 equiv. Succinic acid, Acetone
  Results (cooling) A Acetone: Clear Solution
[3]; cooled to 5° C., 3 days, 2.10 equiv. Sulfuric acid, Acetone
  Results (cooling) A Acetone: Clear Solution
[3]; cooled to 5° C., 3 days, 2.10 equiv. Sulfuric acid
  Results (cooling) B MeOH: Clear Solution
[3]; cooled to 5° C., 3 days, 2.10 equiv. Trifluoroacetic acid, ACN
  Results (cooling) D ACN: Clear Solution
[3]; cooled to 5° C., 3 days, 2.10 equiv. Trifluoroacetic acid, Acetone
  Results (cooling) A Acetone: Clear Solution
[3]; cooled to 5° C., 3 days, 2.10 equiv. Trifluoroacetic acid, EA
  Results (cooling) C EA: Clear Solution
[3]; cooled to 5° C., 3 days, 2.10 equiv. Trifluoroacetic acid
  Results (cooling) B MeOH: Clear Solution
[3]; cooled to 5° C., 3 days, 2.10 equiv. p-Toluenesulfonic acid
  Results (cooling) B MeOH: Clear Solution
[3]; equilibration, 1.05 equiv. Fumaric acid, Acetone
  Results A Acetone: Clear solution
[3]; equilibration, 1.05 equiv. Nicotinamide, Acetone
  Results A Acetone: Clear solution
[3]; equilibration, 1.05 equiv. Urea, Acetone
  Results A Acetone: Clear solution
[3]; equilibration, 2.10 equiv. Adipic acid, Acetone
  Results A Acetone: Clear solution
[3]; equilibration, 2.10 equiv. Fumaric acid, Acetone
  Results A Acetone: Clear solution
[3]; equilibration, 2.10 equiv. L-Malic acid, Acetone
  Results A Acetone: Clear solution
[3]; equilibration, 2.10 equiv. Methanesulfonic acid, EA, AF = Amorphous form
  Results C EA: AF MSA salt*
[3]; equilibration, 2.10 equiv. Succinic acid, Acetone
  Results A Acetone: Clear solution
[3]; equilibration, 2.10 equiv. Trifluoroacetic acid, ACN
  Results D ACN: Clear solution
[3]; equilibration, 2.10 equiv. Trifluoroacetic acid, Acetone
  Results A Acetone: Clear solution
[3]; equilibration, 2.10 equiv. Trifluoroacetic acid, EA
  Results C EA: Clear solution
